Test results published in the OligoGym collection.
HELM strings list units from the 5' end as sugar, base in round brackets, then linkage (d deoxyribose, r ribose, m 2'-O-methyl, p phosphodiester). Strings are as the collection lists them; they lack the last nucleoside at the 3' end of the tested compound. [moe] = 2'-O-(2-methoxyethyl) (MOE); [sp] = phosphorothioate linkage; [m5C] = 5-methylcytosine

These substances were tested against PRNP (assay: mouse, dose not given). Details: ASO.

Row | Substance | 3 h FOB score [score 0-7]
1 | RNA1{[moe]([m5C])[sp].[moe](G)p.[moe](T)p.[moe](T)p.[moe]([m5C])[sp].d(A)[sp].d(T)[sp].d([m5C])[sp].d(T)[sp].d(T)[sp].d(A)[sp].d(T)[sp].d(T)[sp].d([m5C])[sp].d([m5C])[sp].[moe]([m5C])p.[moe](A)p.[moe](T)[sp].[moe](T)}$$$$ (last 3' nucleoside missing) | 1
2 | RNA1{[moe]([m5C])[sp].[moe](G)p.[moe](T)p.[moe]([m5C])p.[moe]([m5C])p.[moe](A)p.d(T)[sp].d(T)[sp].d(T)[sp].d(T)[sp].d([m5C])[sp].d(T)[sp].d(G)[sp].d(T)[sp].d(G)[sp].d([m5C])[sp].[moe](T)p.[moe](T)[sp].[moe](T)}$$$$ (last 3' nucleoside missing) | 6.25
3 | RNA1{[moe]([m5C])[sp].[moe](G)p.[moe](T)p.[moe]([m5C])p.d([m5C])[sp].d(A)[sp].d(T)[sp].d(T)[sp].d(T)[sp].d(T)[sp].d([m5C])[sp].d(T)[sp].d(G)[sp].d(T)[sp].[moe](G)p.[moe]([m5C])p.[moe](T)p.[moe](T)[sp].[moe](T)}$$$$ (last 3' nucleoside missing) | 3
4 | RNA1{[moe]([m5C])[sp].[moe](G)p.[moe](T)p.d([m5C])[sp].d([m5C])[sp].d(A)[sp].d(T)[sp].d(T)[sp].d(T)[sp].d(T)[sp].d([m5C])[sp].d(T)[sp].d(G)[sp].[moe](T)p.[moe](G)p.[moe]([m5C])p.[moe](T)p.[moe](T)[sp].[moe](T)}$$$$ (last 3' nucleoside missing) | 0
5 | RNA1{[moe]([m5C])[sp].[moe](T)[sp].[moe](A)p.[moe](T)p.[moe](G)p.[moe](T)p.[moe](T)p.d(T)[sp].d(T)[sp].d([m5C])[sp].d([m5C])[sp].d(A)[sp].d(G)[sp].d(T)[sp].d(G)[sp].d([m5C])[sp].d([m5C])[sp].[moe]([m5C])p.[moe](A)}$$$$ (last 3' nucleoside missing) | 4.75
6 | RNA1{[moe]([m5C])[sp].[moe](T)[sp].[moe]([m5C])p.[moe](T)p.[moe](A)p.[moe](T)p.[moe](G)p.d(T)[sp].d(T)[sp].d(T)[sp].d(T)[sp].d([m5C])[sp].d([m5C])[sp].d(A)[sp].d(G)[sp].d(T)[sp].d(G)[sp].[moe]([m5C])p.[moe]([m5C])}$$$$ (last 3' nucleoside missing) | 6
7 | RNA1{[moe]([m5C])[sp].[moe](T)p.[moe](A)p.[moe](G)p.[moe](T)[sp].d(A)[sp].d(A)[sp].d(G)[sp].d(A)[sp].d(A)[sp].d([m5C])[sp].d(T)[sp].d(T)[sp].d(A)[sp].d(T)[sp].[moe]([m5C])p.[moe]([m5C])p.[moe]([m5C])[sp].[moe](A)}$$$$ (last 3' nucleoside missing) | 0
8 | RNA1{[moe]([m5C])[sp].[moe](T)p.[moe](A)p.[moe](T)p.[moe](G)[sp].d(A)[sp].d(T)[sp].d(G)[sp].d(A)[sp].d(T)[sp].d(G)[sp].d(G)[sp].d(T)[sp].d(G)[sp].d([m5C])[sp].[moe](T)p.[moe](T)p.[moe](T)[sp].[moe]([m5C])}$$$$ (last 3' nucleoside missing) | 6
9 | RNA1{[moe]([m5C])[sp].[moe](T)p.[moe](A)p.[moe](T)p.[moe](G)[sp].d(T)[sp].d(T)[sp].d(T)[sp].d(T)[sp].d([m5C])[sp].d([m5C])[sp].d(A)[sp].d(G)[sp].[moe](T)p.[moe](G)p.[moe]([m5C])[sp].[moe]([m5C])}$$$$ (last 3' nucleoside missing) | 0
10 | RNA1{[moe]([m5C])[sp].[moe](T)p.[moe](A)p.[moe](T)p.[moe](G)[sp].d(T)[sp].d(T)[sp].d(T)[sp].d(T)[sp].d([m5C])[sp].d([m5C])[sp].d(A)[sp].d(G)[sp].d(T)[sp].d(G)[sp].[moe]([m5C])p.[moe]([m5C])p.[moe]([m5C])[sp].[moe](A)}$$$$ (last 3' nucleoside missing) | 3
11 | RNA1{[moe]([m5C])[sp].[moe](T)p.[moe](A)p.[moe](T)p.[moe](G)p.[moe](T)p.d(T)[sp].d(T)[sp].d(T)[sp].d([m5C])[sp].d([m5C])[sp].d(A)[sp].d(G)[sp].d(T)[sp].d(G)[sp].d([m5C])[sp].[moe]([m5C])p.[moe]([m5C])[sp].[moe](A)}$$$$ (last 3' nucleoside missing) | 3.75
12 | RNA1{[moe]([m5C])[sp].[moe](T)p.[moe](A)p.[moe](T)p.[moe](G)p.d(T)[sp].d(T)[sp].d(T)[sp].d(T)[sp].d([m5C])[sp].d([m5C])[sp].d(A)[sp].d(G)[sp].d(T)[sp].[moe](G)[sp].[moe]([m5C])p.[moe]([m5C])p.[moe]([m5C])}$$$$ (last 3' nucleoside missing) | 0.75
13 | RNA1{[moe]([m5C])[sp].[moe](T)p.[moe](A)p.[moe](T)p.[moe](G)p.d(T)[sp].d(T)[sp].d(T)[sp].d(T)[sp].d([m5C])[sp].d([m5C])[sp].d(A)[sp].d(G)[sp].d(T)[sp].[moe](G)p.[moe]([m5C])p.[moe]([m5C])[sp].[moe]([m5C])}$$$$ (last 3' nucleoside missing) | 1
14 | RNA1{[moe]([m5C])[sp].[moe](T)p.[moe](A)p.[moe](T)p.d(G)[sp].d(T)[sp].d(T)[sp].d(T)[sp].d(T)[sp].d([m5C])[sp].d([m5C])[sp].d(A)[sp].d(G)[sp].d(T)[sp].[moe](G)p.[moe]([m5C])p.[moe]([m5C])p.[moe]([m5C])[sp].[moe](A)}$$$$ (last 3' nucleoside missing) | 1.25
15 | RNA1{[moe]([m5C])[sp].[moe](T)p.[moe](A)p.d(T)[sp].d(G)[sp].d(T)[sp].d(T)[sp].d(T)[sp].d(T)[sp].d([m5C])[sp].d([m5C])[sp].d(A)[sp].d(G)[sp].[moe](T)p.[moe](G)p.[moe]([m5C])p.[moe]([m5C])p.[moe]([m5C])[sp].[moe](A)}$$$$ (last 3' nucleoside missing) | 0.25
16 | RNA1{[moe]([m5C])[sp].[moe](T)p.[moe](G)p.[moe](G)p.[moe](T)[sp].d(G)[sp].d(A)[sp].d(T)[sp].d(T)[sp].d(T)[sp].d(T)[sp].d(T)[sp].d(T)[sp].d([m5C])[sp].d([m5C])[sp].[moe](T)p.[moe](T)p.[moe](T)[sp].[moe]([m5C])}$$$$ (last 3' nucleoside missing) | 0
17 | RNA1{[moe]([m5C])[sp].[moe](T)p.[moe](G)p.[moe](T)p.[moe](T)[sp].d(A)[sp].d(T)[sp].d(G)[sp].d(T)[sp].d(T)[sp].d(A)[sp].d(T)[sp].d(T)[sp].d(A)[sp].d(T)[sp].[moe](T)p.[moe](G)p.[moe](T)[sp].[moe](T)}$$$$ (last 3' nucleoside missing) | 3.75
18 | RNA1{[moe]([m5C])[sp].[moe](T)p.[moe](G)p.[moe](T)p.[moe](T)[sp].d(G)[sp].d([m5C])[sp].d(A)[sp].d([m5C])[sp].d(T)[sp].d(A)[sp].d(A)[sp].d(G)[sp].d(T)[sp].d([m5C])[sp].[moe]([m5C])p.[moe](A)p.[moe](A)[sp].[moe](A)}$$$$ (last 3' nucleoside missing) | 1
19 | RNA1{[moe]([m5C])[sp].[moe](T)p.[moe](G)p.[moe](T)p.[moe]([m5C])[sp].d(A)[sp].d(T)[sp].d([m5C])[sp].d(T)[sp].d([m5C])[sp].d([m5C])[sp].d(A)[sp].d(A)[sp].d([m5C])[sp].d([m5C])[sp].[moe](T)p.[moe](A)p.[moe](A)[sp].[moe](G)}$$$$ (last 3' nucleoside missing) | 1
20 | RNA1{[moe]([m5C])[sp].[moe](T)p.[moe](G)p.[moe]([m5C])p.[moe]([m5C])[sp].d(T)[sp].d(T)[sp].d(A)[sp].d(A)[sp].d(T)[sp].d(T)[sp].d(A)[sp].d([m5C])[sp].d([m5C])[sp].d(T)[sp].[moe](A)p.[moe](T)p.[moe](A)[sp].[moe](G)}$$$$ (last 3' nucleoside missing) | 0.25
21 | RNA1{[moe]([m5C])[sp].[moe](T)p.[moe](T)p.[moe](A)p.[moe](A)[sp].d(T)[sp].d(T)[sp].d(A)[sp].d(G)[sp].d(T)[sp].d(T)[sp].d(A)[sp].d([m5C])[sp].d(A)[sp].d(T)[sp].[moe]([m5C])p.[moe](G)p.[moe](G)[sp].[moe](G)}$$$$ (last 3' nucleoside missing) | 4.5
22 | RNA1{[moe]([m5C])[sp].[moe](T)p.[moe](T)p.[moe](A)p.[moe](T)[sp].d(T)[sp].d(A)[sp].d(T)[sp].d(T)[sp].d([m5C])[sp].d(A)[sp].d(T)[sp].d(G)[sp].d(T)[sp].d(T)[sp].[moe]([m5C])p.[moe](T)p.[moe]([m5C])[sp].[moe]([m5C])}$$$$ (last 3' nucleoside missing) | 1.25
23 | RNA1{[moe]([m5C])[sp].[moe](T)p.[moe](T)p.[moe](A)p.[moe](T)p.d(T)[sp].d(A)[sp].d(T)[sp].d(T)[sp].d([m5C])[sp].d(A)[sp].d(T)[sp].d(G)[sp].d(T)[sp].[moe](T)p.[moe]([m5C])p.[moe](T)[sp].[moe]([m5C])}$$$$ (last 3' nucleoside missing) | 0
24 | RNA1{[moe]([m5C])[sp].[moe](T)p.[moe](T)p.[moe](A)p.[moe]([m5C])[sp].d(T)[sp].d([m5C])[sp].d(G)[sp].d(G)[sp].d([m5C])[sp].d(T)[sp].d(T)[sp].d(G)[sp].d(T)[sp].d(T)[sp].[moe]([m5C])p.[moe]([m5C])p.[moe](A)[sp].[moe]([m5C])}$$$$ (last 3' nucleoside missing) | 0
25 | RNA1{[moe]([m5C])[sp].[moe](T)p.[moe](T)p.[moe](A)p.[moe]([m5C])p.d(T)[sp].d([m5C])[sp].d(G)[sp].d(G)[sp].d([m5C])[sp].d(T)[sp].d(T)[sp].d(G)[sp].d(T)[sp].[moe](T)p.[moe]([m5C])p.[moe]([m5C])[sp].[moe](A)}$$$$ (last 3' nucleoside missing) | 1.75
26 | RNA1{[moe]([m5C])[sp].[moe](T)p.[moe](T)p.[moe](T)p.[moe](T)[sp].d([m5C])[sp].d(T)[sp].d(T)[sp].d(T)[sp].d(G)[sp].d([m5C])[sp].d(A)[sp].d([m5C])[sp].d(A)[sp].d([m5C])[sp].[moe](T)p.[moe](G)p.[moe](A)[sp].[moe]([m5C])}$$$$ (last 3' nucleoside missing) | 4
